A short description of series [1]: Water activity (Rotronic Hygrolab). Conditions: water activity at 19.56-19.87 °C. Type of series: physicochemical.
Series [2] is described as follows: Ibuprofen lysinate vehicle screening. Particulars: ibuprofen lysinate (IBL) in the excipient named; outcome in Comments cell beside.
The text on series [3]:
Different solvent systems such as oils and medium chain triglycerides, solubilizing agents, emulsifying agents (self-emulsifying) and surfactants for the liquid filled capsules were screened for their effectiveness in solubilizing ibuprofen and are listed in Tables 5 to 6.
The screening method involved the following steps:
2. Step T2: the sample was heated using a hot plate and stirrer to facilitate ibuprofen solubility in the vehicle and the samples were left overnight.
3. […] Additional ibuprofen was added by reheating selected T2 solutions until re-crystallization or precipitation was observed.
Observations on whether ibuprofen appeared as dissolved, a suspension (fine suspension) or crystallized (agglomerates) were reported.

Series [4] in a line: Ibuprofen vehicle screening (single excipients). In kind it is physicochemical. Particulars: for Approx. Percentage of API that Resulted in Precipitate: ibuprofen USP in the excipient named, precipitate within approx. 24 h after cooling to room temperature, * = close to saturation point, only a few crystals. As to the method:
Initially, ibuprofen United States Pharmacopeia grade (USP) powder was mixed at room temperature with individual excipients being considered as shown in Table 1. Ibuprofen was incrementally added and mixed until a precipitate was observed. […] Observations were made daily to determine if the mixture would remain a solution or precipitate out within an approximately 24 hour period.

Where two headings read alike, the source gives them in different places.

In the case of `O` [Water], in series [1], the “AW Reading” value is 0.999.
For `CC(O)CO` (stereo not drawn) [Propylene Glycol], the “Approximate Percentage of IBL salt added in powder form to excipient and heated” value in series [2] turned out to be 2.4%. In series [3] (24 h), the “Amt of API added” value came out at 4000.0 mg and the Observation result is reported as “Crystallized (T3)”. Moreover, the “Approx. Percentage of API that Resulted in Precipitate” value in series [4] is given as 28 * %. Besides, the “Approx. Max. Percentage of API in Solution Tested” value in series [4] (ibuprofen USP in the single excipient named, melted in on hot plate, remained in solution approx. 24 h) is 17%.
For Castor Oil, in series [3], the “Amt of API added” value was 257.8 mg and the Observation entry was “Solidify (T1)”.
Regarding `OCC(O)CO` [Glycerin], in series [2], the “Approximate Percentage of IBL salt added in powder form to excipient and heated” value came to 2.2%. Further, in series [3], the “Amt of API added” value turned out to be 250.0 mg and the Observation entry is listed as “Turbid (T1)”. For the same compound, in series [4], the “Approx. Percentage of API that Resulted in Precipitate” value was 2.5%.
